Laboratory results from patent US12433892B2, “Compositions and methods of treatment for neurological disorders comprising depression” (Gliapharm SA, priority 2018, dated 2025).
Where a name gives a salt, the structure may show the parent alone.

Tests used:
astrocytes [1] = assay: Intracellular glycogen quantification; assay type: cell-based, mouse; conditions: Prestwick hits; 10 uM, 3 h
Protocol: For glycogen dosage, a protein dosage was first performed in order to assess whether harvested astrocytes from primary cell cultures yielded enough and equivalent amounts of proteins comparing each replicate, and to ensure that the obtained differences in glycogen quantities were due to drug action and not to inner protein quantities.
Astrocytes used for these dosages were previously grown in 6-well plates for 17 days and stimulated with Vehicle (DMSO) or drug of interest (1 μM to 100 μM) for 180 min, at 37° C. 5% CO2/95% air in D5030 complete medium. Medium was removed and replaced with 600 μl of 30 mM Tris HCl, and stored at −20° C.
Proteins were dosed using the micro BCA Protein Assay kit (Thermo Scientific), as described in the manufacturer's instructions. Briefly, thawed cells were sonicated and 5 μl aliquots were placed in a transparent 96-well plate, to which we added 25 μl 30 mM Tris HCl, 70 μl H2O and 100 μl of a BCA mix (made as described in manufacturer's guidelines). After a 120 min-incubation at 37° C., absorbance was measured with Safire 2 spectrophotometer at a wavelength of 562 nm, and protein quantities were determined from a standard curve of Bovine Serum Albumin (BSA).
Glycogen was quantified using a 250 μl-aliquot of the same stimulated, thawed, and sonicated cells. After an incubation period of 30 min at 90° C. and 400 rpm, 28 μl of an acetic acid/sodium acetate (both from Sigma) 0.1M pH 4.6 buffer was added to each aliquot, which was then separated in two. Each split aliquot received whether 5 μl of amyloglucosidase (Roche) or 5 μl H2O, and all cell solutions were incubated for 120 min in a shaking 37° C.-waterbath. After a centrifugation at 16'000 G for 5 min, 20 μl of supernatant were placed 96-well plate, to which 150 μl of a mix containing 0.67 mM ATP (Roche), 0.67 mM NADP (Roche), 1.8% hexokinase/glucose-6-phosphate dehydrogenase (Roche) and 0.1M Tris Buffer-HCl/3.3 mM magnesium (Fluka)/pH 8.1 buffer was added. Fluorescence was measured with Safire 2 spectrophotometer (340 nm excitation/440 nm emission). Glycogen concentration was obtained by subtracting glucose value of samples with amyloglucosidase to samples without amyloglucosidase, and were expressed relative to the amount of proteins previously determined.
Levels of intracellular glycogen in astrocytes were measured at 3 h after stimulation with 20 hits from the Prestwick library (10 μM each), as shown in FIG. 2. n=6-10; Ctrl pos. is glutamate (0.5 mM). Statistical analysis consisted in ANOVA followed by Fisher LSD post-hoc test for pair-wise comparisons.
(§1) Statistical analysis consisted in ANOVA followed by Fisher LSD post-hoc test for pair-wise comparisons.

astrocytes [2] = assay: Extracellular lactate quantification; assay type: cell-based, mouse; parameters: Score_LACTATE / Score Lact.: scale not given here; conditions: Appendix II; for EC50: Mus musculus, Astrocyte, lactate secretion
Protocol: Primary cultures of cerebrocortical astrocytes were obtained from 1-2-day-old OF1 mouse pups (Charles River Laboratories). Briefly, cortices were isolated and minced in small pieces under a dissecting microscope. The cells were incubated for 30 min at 37° C. in a solution containing 20 U/ml of papain enzyme (Worthington Biochemical), L-cysteine 1 mM (Sigma), and 10 kU/ml DNase I (Worthington Biochemical) for an enzymatic dissociation. Papain activity was stopped by the addition of fetal calf serum (FCS) to the solution, and a single-cell suspension was then obtained by mechanical dissociation, which consisted in cells trituration in a DMEM (D7777, Sigma-Aldrich) medium (supplemented with 44 mm NaHCO3, and 10 ml/L antibiotic/antimycotic solution) containing 10% FCS. The cells were seeded at an average density of 6×10^4 cells/cm^2 in poly-D-lysine-coated 96, 12 or 6-well culture plates, depending on their use, and incubated at 37° C. in a humidified atmosphere containing 5% CO2/95% air. Culture medium was renewed twice per week. Cells were stimulated and harvested between DIV14 and DIV17, when confluence and cell growth were optimal.
Secretion of L-lactate was determined in the extracellular medium of 96-well plated astrocytes after 90 min stimulation (at 37° C., in 5% CO2/95% air conditions) with the drug of interest. The stimulation medium was composed of D5030 medium (completed with D-glucose 5 mM and 44 mM sodium bicarbonate) for 90 min in concentrations ranging from 0 to 100 μM.
Briefly, 200 μl of a Glycine (Sigma)-Semicarbazide (Acros) 0.2M pH 10 buffer containing 3 mM NAD (Roche) and LDH 14 U/ml (Roche) was added to each well of a 96-well plate containing 30 μl aliquots complemented with 20 μl fresh complete D5030 medium. Samples were incubated at 37° C. for 1 h. After samples cooled down at room temperature, the fluorescence intensity (340 nm excitation/450 nm emission) that represents the amount of NADH produced was measured, and lactate concentration values were determined from a standard curve of L-lactate.
as §1
Levels of lactate secreted by astrocytes were measured in the extracellular medium at 90 min after stimulation with hits (molecules) from the CDC54K library.

Row | Compound | Glycogen (statistical significance of glycogen degradation) (astrocytes [1]) | Score Lact. (astrocytes [2]) | EC50 (astrocytes [2]) [µM]
1 | CC[N+](CC)(CC(=O)Nc1c(C)cccc1C)Cc1ccccc1 [Denatonium benzoate] | ** (**p<0.01) | – | –
2 | Clc1ccc2c(c1)CCc1cccnc1C2=C1CCNCC1 [Desloratadine] | * (*p<0.05) | – | –
3 | CCCCOc1cc(C(=O)NCCN(CC)CC)c2ccccc2n1 [Dibucaine] | * (*p<0.05) | – | –
4 | Cc1cccc(NS(=O)(=O)c2ccc(Cl)c(Cl)c2)c1 [F3394-1364] | – | 0.33 | 5.87
5 | FC(F)(F)c1cccc(CNc2ncnc3[nH]ncc23)c1 [F5285-0069] | – | 0.36 | –
6 | CCc1ccc(S(=O)(=O)Nc2cc3c(cc2C)n(C)c(=O)n3C)cc1 [G433-0293] | – | 0.74 | –
7 | COc1ccc(NS(=O)(=O)c2ccc(N3CCCCS3(=O)=O)cc2)cc1 [G508-0015] | – | 0.67 | –
8 | CCNc1cc(C)nc(Nc2ccc(NC(=O)Cc3ccccc3)cc2)c1 [G869-0064] | – | 0.54 | 4.26
9 | CCNc1cc(C)nc(Nc2ccc(NC(=O)c3cccs3)cc2)n1 [G869-0071] | – | 0.63 | –
10 | CC(COc1ccccc1)NC(C)C(O)c1ccc(O)cc1 (stereo not drawn) [Isoxsuprine hydrochloride] | ** (**p<0.01) | – | –
11 | CC(=O)N1CC(C)(C)c2cc(S(=O)(=O)Nc3ccc(F)cc3C)ccc21 [L302-0181] | – | 0.52 | –
12 | Cn1c(=O)c(N2CCC(NC(=O)Nc3cccc(Cl)c3)CC2)nc2ccccc21 [L932-0267] | – | 0.53 | –
13 | CCc1ccc(NS(=O)(=O)c2c(C)c(-c3nnc(C4CC4)o3)n(C)c2C)cc1 [M950-1515] | – | 0.67 | –
14 | CC(C)[N+](C)(CCOC(=O)C1c2ccccc2Oc2ccccc21)C(C)C [Propantheline bromide] | **** (****p<0.0001) | – | –
15 | Cc1cc(/C=C/c2ccc3cc(N(C)C)ccc3[n+]2C)c(C)n1-c1ccccc1 [Pyrvinium pamoate] | **** (****p<0.0001) | – | –
16 | CCOc1ccc(C2(O)C(C)[N+]3=C(CCC3)N2c2ccc(OC)cc2)cc1.[Br-] (stereo not drawn) [T0500-6629] | – | 0.61 | –
17 | N#Cc1cc(C(=O)c2cc(F)ccc2O)cn(-c2ccc(F)c(Cl)c2)c1=O [T0516-6894] | – | 0.38 | –
18 | Cc1sc2nc(CNc3nc4ccccc4c(=O)n3C)[nH]c(=O)c2c1C [T0517-2783] | – | 0.46 | 3.84
19 | COc1ccc(NS(=O)(=O)c2cccc(NC(=O)c3cccs3)c2)cc1 [T0517-4117] | – | 0.91 | –
20 | O=c1[nH]nc(NCCOc2ccc(Br)cc2)n1C1CC1 [T533260] | – | 0.53 | 6.84
21 | COc1ccc(NS(=O)(=O)c2cccc(NC(=O)c3ccccc3)c2)cc1 [T5274959] | – | 0.68 | –
22 | CC(C)S(=O)(=O)c1ccc(NS(=O)(=O)c2ccc(Cl)cc2)cc1 [T5311200] | – | 0.56 | 6.02

Row | Compound | Glycogen (statistical significance of glycogen degradation) (astrocytes [1]) | Score Lact. (astrocytes [2]) | EC50 (astrocytes [2]) [µM]
23 | CCC(C)NS(=O)(=O)c1ccc(Oc2ccc(C)cc2)cc1 (stereo not drawn) [T5400234] | – | 0.33 | –
24 | O=C(Nc1ccc(F)c(F)c1)c1ccc(Cl)c(S(=O)(=O)N2CCCC2)c1 [T5450239] | – | 0.67 | –
25 | CCN(CC)S(=O)(=O)c1ccc(S(=O)(=O)Nc2ccc(C)cc2C)cc1 [T5453923] | – | 0.66 | 5.36
26 | CCn1c(=O)c(C)nc2cc(C(=O)N(Cc3ccc(F)cc3)C3CC3)ccc21 [T5586091] | – | 0.45 | –
27 | Cc1nc2ccc(NC(=O)c3ccc4c(c3)CC(C)N4S(C)(=O)=O)cc2[nH]1 (stereo not drawn) [T5606387] | – | 0.38 | 4.61
28 | N#Cc1ccc(S(=O)(=O)Nc2ccccc2C(=O)NCc2ccccc2)cc1 [T5673322] | – | 0.63 | –
29 | CCCC(=O)Nc1nc(-c2ccc3c(c2)CCO3)cs1 [T5691896] | – | 0.38 | –
30 | Cc1ccc(-c2c[nH]c(NC(=O)c3ccncc3)n2)cc1[N+](=O)O [T5694329] | – | 0.47 | 1.59
31 | COc1ccc(C(C)NC(=O)c2cc(=O)c3ccccc3o2)cc1F (stereo not drawn) [T5710343] | – | 0.67 | –
32 | CCc1ccccc1NC(=O)CN(C)c1ncnc2c1oc1ccccc12 [T5712071] | – | 0.8 | –
33 | Cc1sc2nc(CSc3nc4ccccc4[nH]3)nc(N)c2c1C [T5719257] | – | 0.74 | –
34 | COc1ccccc1NC(=O)CO/N=C(/N)c1cccc(C(F)(F)F)c1 [T5770640] | – | 0.55 | –
35 | COc1cc(C)c(NC(=O)Cc2ccc(Cl)c(Cl)c2)cc1OC [T5783794] | – | 0.44 | –
36 | c1nc(NCc2ccc3c(c2)OCO3)c2sccc2n1 [T5787526] | – | 0.71 | –
37 | CC(=O)Nc1cccc(NC(=O)CSc2nc(C)c(C)n2C2CCCC2)c1 [T5788339] | – | 0.75 | –
38 | c1ccc(CN2CCOCC2)c(CNc2ncnc3ccsc23)c1 [T5790476] | – | 0.79 | –
39 | COc1cccc(C(CNc2nc(C(F)(F)F)nc3ccccc23)N(C)C)c1 (stereo not drawn) [T5800607] | – | 063 | –
40 | CC(C)(C)NS(=O)(=O)c1cccc(C(=O)Nc2ccncc2)c1 [T5827594] | – | 0.71 | –
41 | O=C(Nc1cccc([N+](=O)[O-])c1)c1ccc(S(=O)(=O)NCC2CCCO2)cc1 (stereo not drawn) [T6010789] | – | 1.31 | 5.82
42 | O=S(=O)(Nc1ccc(F)cc1)c1ccc(F)c(Cl)c1 [T6947848] | – | 0.98 | 5.5
43 | Cc1c(C)c2c(c(C)c1O)CCC(C)(COc1ccc(CC3SC(=O)NC3=O)cc1)O2 (stereo not drawn) [Troglitazone] | *** (***p<0.001) | – | –
44 | CS(=O)(=O)NC1CCN(C(=O)c2ccc(F)cc2)C1 (stereo not drawn) [Z603-8037] | – | 0.32 | –
